Test results taken from patent US12708630B2, “Combined therapy of 4′-thio-5-aza-2′-deoxycytidine and Venetoclax” (PINOTBIO, INC., priority 2021, dated 2026).
Entries after “also recorded” stand apart in the source; their conditions may differ.

Key:
H2AX, Chk1, p53 = experiment: DNA damage response markers; assay type: cell-based
MV4-11 AML cells = experiment: MV4-11 AML xenograft implanted subcutaneously, combination with venetoclax; assay type: in vivo, mice; parameters: anti-cancer effect (tumor volume): dose or concentration left out as unconfirmed
Experimental: After establishing a xenograft systemic AML model in which MV4-11 AML cells were implanted subcutaneously in mice, Aza-T-dCyd alone at 2.0 mpk for 1 cycle (5 days on, 2 days off, 5 days on, 9 days off) was administered (PO) or Aza-T-dCyd 0.5, 1.0 or 2.0 mpk plus venetoclax 50 mpk or 100 mpk administered orally (PO) for 1 cycle (venetoclax on for 5 days, off for 2 days, repeated for 3 weeks). Anti-cancer efficacy was determined in disease models in which azacitidine 5.0 mpk was administered intraperitoneally (IP) alone or in combination with optimal dose of azacitidine (2.5 mpk) and venetoclax 50 mpk or 100 mpk as a control.

DNMT1 [1] = molecular target: T1, DNMT1 (Homo sapiens, UniProt P26358); experiment: Western blotting of Molm13 xenograft cancer tissues, DNMT1; assay type: in vivo; parameters: endogenous in cells; conditions: after administration
T1 sequence (P26358 whole entry): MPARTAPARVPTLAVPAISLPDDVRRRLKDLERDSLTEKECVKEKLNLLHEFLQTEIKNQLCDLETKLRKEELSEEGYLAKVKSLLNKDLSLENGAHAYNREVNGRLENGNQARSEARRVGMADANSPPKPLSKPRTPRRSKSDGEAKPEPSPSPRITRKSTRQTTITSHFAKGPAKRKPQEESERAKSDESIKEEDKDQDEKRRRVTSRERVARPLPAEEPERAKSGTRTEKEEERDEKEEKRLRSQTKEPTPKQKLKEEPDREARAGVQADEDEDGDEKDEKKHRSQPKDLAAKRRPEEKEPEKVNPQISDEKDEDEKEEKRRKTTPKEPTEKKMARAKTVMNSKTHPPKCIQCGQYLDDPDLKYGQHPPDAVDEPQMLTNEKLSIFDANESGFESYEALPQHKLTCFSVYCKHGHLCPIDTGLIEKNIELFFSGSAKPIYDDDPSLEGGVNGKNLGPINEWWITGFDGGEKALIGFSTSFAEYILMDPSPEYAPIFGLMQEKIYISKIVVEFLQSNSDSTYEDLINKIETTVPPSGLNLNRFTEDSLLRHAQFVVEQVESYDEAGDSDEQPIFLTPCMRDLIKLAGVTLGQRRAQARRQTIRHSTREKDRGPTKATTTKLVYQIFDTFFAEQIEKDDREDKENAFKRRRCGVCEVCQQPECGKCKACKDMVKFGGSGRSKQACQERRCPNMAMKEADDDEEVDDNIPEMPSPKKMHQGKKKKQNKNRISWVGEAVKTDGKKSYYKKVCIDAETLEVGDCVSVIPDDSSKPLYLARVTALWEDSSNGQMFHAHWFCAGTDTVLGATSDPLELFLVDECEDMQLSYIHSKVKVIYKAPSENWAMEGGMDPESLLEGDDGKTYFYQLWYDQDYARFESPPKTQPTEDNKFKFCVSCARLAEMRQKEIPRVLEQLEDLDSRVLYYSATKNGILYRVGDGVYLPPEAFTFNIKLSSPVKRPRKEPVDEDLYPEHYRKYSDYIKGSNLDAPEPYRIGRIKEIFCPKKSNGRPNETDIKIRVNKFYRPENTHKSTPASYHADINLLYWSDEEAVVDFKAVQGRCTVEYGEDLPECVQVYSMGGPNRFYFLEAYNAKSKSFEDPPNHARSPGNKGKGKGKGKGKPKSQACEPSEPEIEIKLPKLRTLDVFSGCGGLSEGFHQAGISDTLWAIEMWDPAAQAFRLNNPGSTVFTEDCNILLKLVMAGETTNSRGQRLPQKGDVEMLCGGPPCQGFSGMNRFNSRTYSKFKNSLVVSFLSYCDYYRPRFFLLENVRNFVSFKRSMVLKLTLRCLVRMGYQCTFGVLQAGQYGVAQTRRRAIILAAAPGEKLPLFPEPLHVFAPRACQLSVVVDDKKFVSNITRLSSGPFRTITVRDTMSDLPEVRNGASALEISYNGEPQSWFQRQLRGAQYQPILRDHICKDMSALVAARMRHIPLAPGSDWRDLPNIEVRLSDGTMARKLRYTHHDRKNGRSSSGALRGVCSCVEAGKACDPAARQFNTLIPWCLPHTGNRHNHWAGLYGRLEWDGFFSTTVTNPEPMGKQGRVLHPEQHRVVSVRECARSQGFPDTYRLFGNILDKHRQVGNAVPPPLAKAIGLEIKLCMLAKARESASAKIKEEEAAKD

HL-60 AML xenograft = HL-60 AML xenograft model; assay type: in vivo; conditions: 2.0 mg/kg
CEBP/epsilon, CDKN1B = experiment: CEBP/epsilon and CDKN1B expression in AML cell lines; assay type: cell-based
Source text: CEBP/epsilon and CDKNIB expression was identified and comparatively analyzed in various AML cell lines to determine the mode of target engagement induced by DNMT1 inhibition upon treatment with Aza-T-dCyd (NTX-301) (FIG. 16).

[2] = Pharmacokinetic evaluation in Mice (Table 4); conditions: mouse, in vivo; for half-life: read-out: T½ (converted)
Experimental: (§1) Aza-T-dCyd was administered orally and intravenously at various concentrations to Mice, Rats and Dogs to determine the PK profile.

Molm13 Xenograft model = experiment: Molm13 Xenograft model; assay type: in vivo; conditions: oral 0.2-1.5 mg/kg
BL0382PD PDX (bladder) = assay type: in vivo, Mouse; conditions: NSG mouse, 1 mg/kg, (4) cycles
Source text: The efficacy of Aza-T-dCyd was confirmed by tumor growth curves after administration of Aza-T-dCyd in various solid cancer xenograft models. […]

[3] = cited from earlier work
DNMT1 [4] = molecular target: T1, DNMT1; experiment: DNMT1 protein Western blotting in cancer cell lines; assay type: cell-based; parameters: endogenous in cells; host or cells: MV4-11, KG-1a, CCRF-CEM, NCI-H23, HCT-116, IGROV-1 (also HL-60, THP-1); conditions: for DNMT1 protein (Western blotting): AML cell lines MV4-11 and KG-1a
[5] = test system: ALL-Patient Derived Xenografts; experiment: ALL-Patient Derived Xenografts (PDX); assay type: in vivo; conditions: doses tolerated up to 1.5 mg/kg (0.5, 1, 1.5, 2 mg/kg tested)
Experimental: To determine the efficacy of Aza-T-dCyd in another indication, T-ALL, we evaluated the efficacy of Aza-T-dCyd in a patient-derived ALL animal model.
Aza-T-dCyd was administered at doses of 0.5, 1, 1.5, and 2 mg/kg in ALL-Patient Derived Xenografts (PDX), with T-dCyd (DNMT1 inhibitor) used as a comparative control.

[6] = Pharmacokinetic evaluation in Dog; assay type: in vivo; conditions: for AUC(0-inf) / AUC(0-t) / Cmax / half-life / Tmax: in vivo, Dog; for half-life: read-out: T½ (converted)
Experimental: as §1

DNMT3B = DNMT3B (Homo sapiens, UniProt Q9UBC3); experiment: Western blotting of Molm13 xenograft cancer tissues, DNMT3B; assay type: in vivo; parameters: cancer tissues were harvested and analyzed by Western blotting; from tissue; host or cells: Molm13 leukemia xenograft cancer tissue
[7] = MV4-11, HL-60 and KG-1a cells, 72 hours
[8] = THP-1 cells, different concentrations

## Nc1ncn([C@H]2CC(O)[C@@H](CO)S2)c(=O)n1 (some centres unmarked) [Aza-T-dCyd, 4′-thio-5-aza-2′-deoxycytidine]
H2AX, Chk1, p53
  H2AX phosphorylation: increased H2AX phosphorylation
  expression of p53 protein: increased expression of p53 protein
  phosphorylation of Chk1: increased phosphorylation of Chk1
MV4-11 AML cells; Aza-T-dCyd 0.5 mpk with venetoclax, FIGS. 30 and 31
  anti-cancer effect (tumor volume): complete tumor regression
MV4-11 AML cells; Aza-T-dCyd 2.0 mpk alone, FIGS. 28 to 33
  anti-cancer efficacy of monotherapy versus Azacytidine/Venetoclax: as effective as the Azacytidine/Venetoclax group; also recorded: anti-cancer efficacy equivalent to or superior to that of Azacytidine/Venetoclax combination
MV4-11 AML cells; administered alone (Aza-T-dCyd 2 mpk), FIGS. 30 and 31, listed as NTX-301
  anti-cancer effect (tumor volume), single agent: sufficiently working; also recorded: sufficiently anti-tumorigenic
DNMT1 [1]
  DNMT1 in cancer tissues (Western blotting): strongly inhibited DNMT1 and DNMT3B in a concentration-dependent manner
HL-60 AML xenograft
  tumor suppression: strong tumor suppression
CEBP/epsilon, CDKN1B; [7]
  CEBP/epsilon and CDKN1B intracellular protein expression: expression of CEBP/epsilon and CDKN1B was increased
CEBP/epsilon, CDKN1B; [8]
  CEBP/epsilon and CDKN1B expression: increased CEBP/epsilon expression and CDKN1B expression
[2]; Table 4, IV 1 mg/kg
  AUC(0-inf): 406 ng·h/mL
  AUC(0-t): 370 ng·h/mL
  Cmax: 527 ng/mL
  half-life: 36.7 min
[2]; Table 4, PO 0.5 mg/kg
  AUC(0-inf): 131 ng·h/mL
  AUC(0-t): 118 ng·h/mL
  Cmax: 211 ng/mL
  Tmax: 30 min
  half-life: 18.2 min
[2]; Table 4, PO 1 mg/kg
  AUC(0-inf): 235 ng·h/mL
  AUC(0-t): 136 ng·h/mL
  Cmax: 138 ng/mL
  Tmax: 15 min
  half-life: 103 min
[2]; Table 4, PO 3 mg/kg
  AUC(0-inf): 443 ng·h/mL
  AUC(0-t): 303 ng·h/mL
  Cmax: 256 ng/mL
  Tmax: 15 min
  half-life: 66.6 min
[2]; Table 4, PO 10 mg/kg
  AUC(0-inf): 1460 ng·h/mL
  AUC(0-t): 1340 ng·h/mL
  Cmax: 863 ng/mL
  Tmax: 20 min
  half-life: 69 min
Molm13 Xenograft model
  anti-cancer effect: potent anti-cancer effect in a dose-dependent manner
  toxicity signals (body weight changes): without any toxicity signals
BL0382PD PDX (bladder)
  Optimal T/C (%) (test/control): 23%
[3]; 16 mg/day dose, NCI's Phase 1 trial
  AUC value: about 50 ng*h/mL
[3]; Phase 1a, solid tumors, dose approximately twice that of conventional decitabine
  side effects: no significant side effects were observed
[3]; clinical trials, 32 mg/day dose
  disease control rate: high disease control rate
[3]; humans
  MTD dose in Phase 1: 32 mg
DNMT1 [4]; 20 nM
  DNMT1 protein (Western blotting): completely reduced DNMT1
DNMT1 [4]
  DNMT1 protein (Western blotting): reduced DNMT1 protein in a concentration-dependent manner
DNMT1 [4]; CCRF-CEM (ALL cell line) cells, FIG. 12
  DNMT1 inhibition: inhibits DNMT1
DNMT1 [4]; CCRF-CEM (ALL) and solid cancer cell line
  DNMT1 inhibition: can inhibit DNMT1 in a concentration-dependent manner
DNMT1 [4]; KG-1a (AML cell line) cells, FIG. 11
  DNMT1 inhibition: inhibits DNMT1
DNMT1 [4]; MV4-11 (AML cell line) cells, different concentrations, FIG. 10
  DNMT1 inhibition: inhibits DNMT1
DNMT1 [4]; [7]
  DNMT1 intracellular protein expression: expression of DNMT1 was inhibited
DNMT1 [4]; NCI-H23, HCT-116 and IGROV-1 cell lines, FIG. 13
  DNMT1 inhibition: inhibits DNMT1
DNMT1 [4]; [8]
  DNMT1 inhibition: induced DNMT1 inhibition in a dose-dependent manner
[5]
  efficacy in pediatric ALL PDX: highly effective
[6]; dogs
  oral bioavailability: orally bioavailable
[6]; IV 0.33 mg/kg
  AUC(0-inf): 1130 ng·h/mL
  AUC(0-t): 1050 ng·h/mL
  Cmax: 552 ng/mL
  half-life: 135 min
[6]; PO 0.15 mg/kg
  AUC(0-inf): 439 ng·h/mL
  AUC(0-t): 409 ng·h/mL
  Cmax: 104 ng/mL
  Tmax: 60 min
  half-life: 112 min
[6]; PO 0.33 mg/kg
  AUC(0-inf): 880 ng·h/mL
  AUC(0-t): 790 ng·h/mL
  Cmax: 210 ng/mL
  Tmax: 40.2 min
  half-life: 140 min
[6]; PO 0.67 mg/kg
  AUC(0-inf): 1760 ng·h/mL
  AUC(0-t): 1570 ng·h/mL
  Cmax: 463 ng/mL
  Tmax: 49.8 min
  half-life: 136 min
[6]; PO 1.5 mg/kg
  AUC(0-inf): 3370 ng·h/mL
  AUC(0-t): 3200 ng·h/mL
  Cmax: 882 ng/mL
  Tmax: 40.2 min
  half-life: 101 min
[6]; PO 3.0 mg/kg
  AUC(0-inf): 5620 ng·h/mL
  AUC(0-t): 5380 ng·h/mL
  Cmax: 1670 ng/mL
  Tmax: 25 min
  half-life: 99 min
DNMT3B; Molm13 AML xenograft, above 0.4 mg/kg
  DNMT3B protein of approximately 90 kDa: clear reduction of DNMT3B protein
DNMT3B; Molm13 xenograft, after administration
  DNMT3B in cancer tissues (Western blotting): strongly inhibited DNMT1 and DNMT3B in a concentration-dependent manner
